Values after ≈ are worked out from the molar mass of the structure shown.
The compounds below were run on P388 (assay: Cytotoxicity against P-388 leukemia cells). Details: Mus musculus.
Format: functional, cell-based

SMILES | IC50 [µg/mL]
COc1cc(C2C3=C(O)OCC3=Nc3cc4c(cc32)CCC4)cc(OC)c1OC (centres undefined) | 0.0041 (≈ 0.0104 µM)
COc1cc(-c2c3c(nc4cc5c(cc24)OCO5)COC3=O)cc(OC)c1OC | > 100
OC1=C2C(=Nc3cc4c(cc3C2c2ccc3c(c2)OCO3)OCO4)CO1 (centres undefined) | 0.03 (≈ 0.0854 µM)
COc1ccc(C2c3cc4c(cc3NC3COC(=O)C32)OCO4)cc1OC (centres undefined) | 0.048 (≈ 0.13 µM)
COc1cc2c(cc1OC)C(c1cc(OC)c(OC)c(OC)c1)C1=C(O)OCC1=N2 (centres undefined) | 4.9 (≈ 11.9 µM)
COc1cc(-c2c3c(nc4cc5c(cc24)OCCO5)COC3=O)cc(OC)c1OC | 80 (≈ 195 µM)
COc1cccc(C2C3=C(O)OCC3=Nc3cc4c(cc32)OCO4)c1 (centres undefined) | 0.0053 (≈ 0.0157 µM)
COc1cc(C2C3=C(O)OCC3=Nc3cc4c(cc32)-c2ccccc2C4)cc(OC)c1OC (centres undefined) | 0.92 (≈ 2.08 µM)
COc1ccc(-c2c3c(nc4cc(OC)c(OC)cc24)COC3=O)cc1OC | 39 (≈ 102 µM)
O=C1OCc2nc3cc4c(cc3c(-c3ccc5c(c3)OCO5)c21)OCO4 | > 100
COc1cc2nc3c(c(-c4cc(OC)c(OC)c(OC)c4)c2cc1OC)C(=O)OC3 | > 100
COc1cc(-c2c3c(nc4cc5c(cc24)-c2ccccc2C5)COC3=O)cc(OC)c1OC | 63 (≈ 143 µM)
COc1cc(-c2c3c(nc4cc5c(cc24)CCC5)COC3=O)cc(OC)c1OC | > 100
COc1cccc(-c2c3c(nc4cc5c(cc24)OCO5)COC3=O)c1 | > 100
COc1ccc(-c2c3c(nc4cc5c(cc24)OCO5)COC3=O)cc1 | > 100
COc1ccc(C2C3=C(O)OCC3=Nc3cc4c(cc32)OCO4)cc1 (centres undefined) | 0.13 (≈ 0.385 µM)
COc1cc(C2C3=C(O)CCC3=Nc3cc4c(cc32)OCO4)cc(OC)c1OC (centres undefined) | 0.028 (≈ 0.0708 µM)
COc1cc(-c2c3c(nc4cc5c(cc24)OCO5)CCC3=O)cc(OC)c1OC | 71 (≈ 180 µM)
COc1cc(-c2c3c(nc4cc(OC)c(OC)c(OC)c24)COC3=O)cc(OC)c1OC | 29 (≈ 65.7 µM)
O=C1OCc2nc3cc4c(cc3c(-c3ccccc3)c21)OCO4 | 60 (≈ 197 µM)
COc1cc(C2C3=C(COC3=O)Nc3cc4c(cc32)OCO4)cc(OC)c1OC (centres undefined) | 0.0018 (≈ 0.00453 µM)
COc1cc(C2C3=C(COC3=O)Nc3cc(OC)c(OC)c(OC)c32)cc(OC)c1OC (centres undefined) | 2.6 (≈ 5.86 µM)
COc1ccc(C2C3=C(O)OCC3=Nc3cc(OC)c(OC)cc32)cc1OC (centres undefined) | 0.76 (≈ 1.98 µM)
COc1ccc(-c2c3c(nc4cc5c(cc24)OCO5)COC3=O)cc1OC | 40 (≈ 109 µM)
COc1cc(C2C3=C(O)OCC3=Nc3cc4c(cc32)OCCO4)cc(OC)c1OC (centres undefined) | 0.0017 (≈ 0.00413 µM)
COc1cc([C@@H]2c3cc4c(cc3[C@H](O)[C@H]3COC(=O)[C@H]23)OCO4)cc(OC)c1OC [PODOFILOX] | 0.0043 (≈ 0.0104 µM)
COc1cc2nc3c(c(-c4ccc5c(c4)OCO5)c2cc1OC)C(=O)OC3 | 2 (≈ 5.47 µM)
COc1cc2c(cc1OC)C(c1ccc3c(c1)OCO3)C1=C(O)OCC1=N2 (centres undefined) | 0.77 (≈ 2.1 µM)
OC1=C2C(=Nc3cc4c(cc3C2c2ccccc2)OCO4)CO1 (centres undefined) | 0.0053 (≈ 0.0172 µM)
